Results as given in patent US20240148723A1, “MYCOBACTERIUM TUBERCULOSIS COMPOSITIONS AND METHODS” (priority 2021, published 2024).
≈ marks a conversion by molar mass, not a printed value.

tested on: M. tuberculosis; assay type: cell-based, Mycobacterium tuberculosis; conditions: pH 6.8

Compound	MIC in the media 7H9	MIC in the media L-Ala	MIC in the media SBA	MIC in the media SLac
C=C1C(=O)OC2CC1C(OC(C)=O)C/C(C)=C/CC/C(C)=C\CCC2(C)O (stereo not drawn) [compound 36437]	≥ 37.65 µg/mL	9.41 µg/mL (≈ 25 µM)	4.71 µg/mL (≈ 12.5 µM)	2.35 µg/mL (≈ 6.24 µM)
O=c1c(-c2ccc(O)cc2)coc2cc(O)cc(O)c12 [compound 36586]	≥ 108.10 µg/mL	13.51 µg/mL (≈ 50 µM)	13.51 µg/mL (≈ 50 µM)	1.69 µg/mL (≈ 6.25 µM)
NC(=O)c1cccc(N)c1 [compound 36962]	≥ 54.48 µg/mL	13.62 µg/mL (≈ 100 µM)	13.62 µg/mL (≈ 100 µM)	13.62 µg/mL (≈ 100 µM)
NC(=O)c1ccc(N)cc1 [compound 36963]	≥ 54.48 µg/mL	6.81 µg/mL (≈ 50 µM)	13.62 µg/mL (≈ 100 µM)	3.41 µg/mL (≈ 25 µM)
NC(=O)c1cccc([N+](=O)[O-])c1 [compound 37327]	≥ 66.44 µg/mL	66.44 µg/mL (≈ 400 µM)	33.22 µg/mL (≈ 200 µM)	66.44 µg/mL (≈ 400 µM)
C=CCOc1c(CCC)cc(CCC)cc1C(N)=O [compound 37955]	≥ 26.14 µg/mL	13.07 µg/mL (≈ 50 µM)	13.07 µg/mL (≈ 50 µM)	3.27 µg/mL (≈ 12.5 µM)
CCOC(=O)CCCCCCCCCCCCC1C=CCC1 (stereo not drawn) [compound 38010]	≥ 30.85 µg/mL	3.86 µg/mL (≈ 12.5 µM)	1.93 µg/mL (≈ 6.26 µM)	1.93 µg/mL (≈ 6.26 µM)
COC(C(=O)C(O)C(C)O)C1Cc2cc3cc(OC4CC(OC(C)=O)C(OC5CC(O)C(OC)C(C)O5)C(C)O4)cc(O)c3c(O)c2C(=O)C1OC1CC(OC2CC(OC3CC(C)(O)C(OC(=O)C(C)C)C(C)O3)C(O)C(C)O2)C(O)C(C)O1 (stereo not drawn) [compound 38270]	≥ 59.87 µg/mL	7.48 µg/mL (≈ 6.25 µM)	3.83 µg/mL (≈ 3.2 µM)	3.83 µg/mL (≈ 3.2 µM)
NC(=O)c1ccccc1N [compound 38768]	≥ 54.48 µg/mL	54.48 µg/mL (≈ 400 µM)	54.48 µg/mL (≈ 400 µM)	54.48 µg/mL (≈ 400 µM)
O=C(O)c1cc2ccccc2cc1Nc1ccccc1 [compound 40275]	≥ 26.33 µg/mL	3.29 µg/mL (≈ 12.5 µM)	3.29 µg/mL (≈ 12.5 µM)	0.84 µg/mL (≈ 3.19 µM)
Cc1c(Cl)ccc2c(C(=O)O)cc(-c3ccccc3)nc12 [compound 40306]	≥ 29.77 µg/mL	7.44 µg/mL (≈ 25 µM)	7.44 µg/mL (≈ 25 µM)	3.72 µg/mL (≈ 12.5 µM)
CCOC(=O)c1ccc(N)cc1 [compound 41531]	≥ 800 µg/mL	0.26 µg/mL (≈ 1.57 µM)	0.26 µg/mL (≈ 1.57 µM)	0.26 µg/mL (≈ 1.57 µM)
Nc1cc(Nc2ccc(Br)cc2)nc(N)n1 [compound 42135]	≥ 28.01 µg/mL	7.00 µg/mL (≈ 25 µM)	14.01 µg/mL (≈ 50 µM)	3.50 µg/mL (≈ 12.5 µM)
O=C1C[C@@H](c2ccccc2)Oc2cc(O)cc(O)c21 [compound 43318]	≥ 101.70 µg/mL	6.36 µg/mL (≈ 24.8 µM)	6.36 µg/mL (≈ 24.8 µM)	0.41 µg/mL (≈ 1.6 µM)
O=C1C(O)=C(c2ccccc2)C(=O)C(O)=C1c1ccccc1 [compound 44175]	≥ 29.23 µg/mL	7.31 µg/mL (≈ 25 µM)	3.65 µg/mL (≈ 12.5 µM)	3.65 µg/mL (≈ 12.5 µM)
CN(CC(=O)O)Cc1c(O)c(Cl)cc(Cl)c1Cl [compound 45114]	≥ 119.40 µg/mL	29.85 µg/mL (≈ 100 µM)	14.93 µg/mL (≈ 50 µM)	3.73 µg/mL (≈ 12.5 µM)
C=C1C(=O)OC2CC1C(OC(C)=O)C/C(C)=C/CC/C(C)=C\CCC2(C)O (stereo not drawn) [compound 46728]	≥ 75.30 µg/mL	37.65 µg/mL (≈ 100 µM)	9.41 µg/mL (≈ 25 µM)	4.71 µg/mL (≈ 12.5 µM)

Compound	MIC in the media 7H9	MIC in the media L-Ala	MIC in the media SBA	MIC in the media SLac
c1ccc(Sc2ncnc3ccccc23)cc1 [compound 51331]	≥ 23.83 µg/mL	11.92 µg/mL (≈ 50 µM)	11.92 µg/mL (≈ 50 µM)	2.98 µg/mL (≈ 12.5 µM)
Oc1ccc(Cl)cc1Sc1cc(Cl)ccc1O [compound 55636]	≥ 114.88 µg/mL	1.80 µg/mL (≈ 6.27 µM)	0.92 µg/mL (≈ 3.2 µM)	0.92 µg/mL (≈ 3.2 µM)
COC12C(COC(N)=O)C3=C(C(=O)C(C)=C(N)C3=O)N1CC1C2N1C (stereo not drawn) [compound 56410]	≥ 0.28 µg/mL	0.28 µg/mL (≈ 0.804 µM)	0.28 µg/mL (≈ 0.804 µM)	0.56 µg/mL (≈ 1.61 µM)
COc1ccc(C(=O)c2ccccc2O)c(O)c1 [compound 56769]	≥ 97.70 µg/mL	24.42 µg/mL (≈ 100 µM)	24.42 µg/mL (≈ 100 µM)	0.76 µg/mL (≈ 3.11 µM)
O=[N+]([O-])c1cc([N+](=O)[O-])c2cccnc2c1O [compound 57103]	≥ 23.52 µg/mL	0.75 µg/mL (≈ 3.19 µM)	0.75 µg/mL (≈ 3.19 µM)	0.75 µg/mL (≈ 3.19 µM)
COc1ccc(C2CC(=O)c3c(O)cc(O)cc3O2)cc1O (stereo not drawn) [compound 57654]	≥ 120.91 µg/mL	7.56 µg/mL (≈ 25 µM)	7.56 µg/mL (≈ 25 µM)	1.89 µg/mL (≈ 6.25 µM)
O=c1[nH]c(=S)[nH]cc1Oc1ccc(Cl)cc1Cl [compound 73753]	≥ 115.66 µg/mL	14.46 µg/mL (≈ 50 µM)	14.46 µg/mL (≈ 50 µM)	1.81 µg/mL (≈ 6.26 µM)
CC[C@@H](O)C[C@H]1CCC[C@@]2(C[C@@H]3OC(=O)/C=C/[C@@](C)(O)[C@@H](O)[C@H](C)[C@@H](O)[C@H](OC4CCC(N(C)C)C(C)O4)[C@@H](O)[C@](C)(O)CCCCC/C=C/[C@@H]4CC(C)(C)O[C@@]4(O)C[C@H](O2)[C@H]3C)O1 (stereo partly drawn) [compound 76627]	≥ 22.81 µg/mL	5.7 µg/mL (≈ 6.25 µM)	11.4 µg/mL (≈ 12.5 µM)	5.7 µg/mL (≈ 6.25 µM)
CCOC(CNCc1cc(C)c2[nH]c3ccccc3c2c1C)OCC [compound 79486]	≥ 17.03 µg/mL	8.51 µg/mL (≈ 25 µM)	8.51 µg/mL (≈ 25 µM)	2.13 µg/mL (≈ 6.26 µM)
Cc1ccc(NC(c2ccccc2)c2ccc3cccnc3c2O)cc1 (stereo not drawn) [compound 84093]	≥ 136.16 µg/mL	17.02 µg/mL (≈ 50 µM)	2.13 µg/mL (≈ 6.26 µM)	2.13 µg/mL (≈ 6.26 µM)
CCCCc1oc2ccccc2c1C(=O)c1cc(I)c(OCCN(CC)CC)c(I)c1.Cl [compound 85442]	≥ 8.52 µg/mL	4.26 µg/mL	2.18 µg/mL	1.09 µg/mL
OC(COc1ccc(Cl)cc1)CN1CCN(c2cccc(Cl)c2)CC1 (stereo not drawn) [compound 91340]	≥ 38.13 µg/mL	4.77 µg/mL (≈ 12.5 µM)	9.53 µg/mL (≈ 25 µM)	4.77 µg/mL (≈ 12.5 µM)
Sc1nc2cc(-c3ccccc3)ccc2o1 [compound 93817]	≥ 22.73 µg/mL	1.42 µg/mL (≈ 6.25 µM)	0.73 µg/mL (≈ 3.21 µM)	0.73 µg/mL (≈ 3.21 µM)
Nc1ccc(N=Nc2ccc(O)cc2)c(N)n1 [compound 108235]	≥ 22.92 µg/mL	11.46 µg/mL (≈ 50 µM)	11.46 µg/mL (≈ 50 µM)	5.73 µg/mL (≈ 25 µM)
CCC(C)c1occ2c(O)c(C(=O)O)c(=O)cc-2c1C (stereo not drawn) [compound 114344]	≥ 110.51 µg/mL	27.63 µg/mL (≈ 100 µM)	6.91 µg/mL (≈ 25 µM)	1.73 µg/mL (≈ 6.26 µM)
C1C2CC3C1C3/C2=N\N=C1/C2CC3C(C2)C13 [compound 122987]	≥ 88.52 µg/mL	1.38 µg/mL (≈ 6.5 µM)	11.06 µg/mL (≈ 52.1 µM)	5.53 µg/mL (≈ 26 µM)
